Test results published in patent publication US8247397B2, “Combinations of phosphoinositide 3-kinase inhibitor compounds and chemotherapeutic agents, and methods of use” (Genentech, Inc., priority 2007, dated 2012).

How the values were obtained:
[1] = target: T1, SGK (Homo sapiens, UniProt O00141); details: concentrations as high as 50 μM; cited from earlier work
T1 sequence (O00141 1-431): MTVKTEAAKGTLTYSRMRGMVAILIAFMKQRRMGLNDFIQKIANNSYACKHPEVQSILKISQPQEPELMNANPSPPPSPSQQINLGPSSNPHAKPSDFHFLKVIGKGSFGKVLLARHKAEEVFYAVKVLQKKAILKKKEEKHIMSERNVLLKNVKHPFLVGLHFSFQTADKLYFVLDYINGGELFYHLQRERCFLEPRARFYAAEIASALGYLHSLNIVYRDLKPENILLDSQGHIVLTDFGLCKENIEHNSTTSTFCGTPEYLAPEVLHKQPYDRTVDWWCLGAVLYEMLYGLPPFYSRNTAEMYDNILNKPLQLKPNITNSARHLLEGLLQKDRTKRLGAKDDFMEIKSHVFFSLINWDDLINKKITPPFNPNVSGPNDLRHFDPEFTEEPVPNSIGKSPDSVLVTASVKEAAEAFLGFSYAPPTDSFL

[2] = tested on: PKC; details: concentrations as high as 50 μM; cited from earlier work
[3] = tested on: PKA; details: concentrations as high as 50 μM; cited from earlier work
[4] = tested on: NCI-H2122 non-small cell lung cancer (NSCLC) tumor xenografts; assay: In vivo tumor xenograft; parameters: species or system mouse; details: erlotinib 75 mg/kg
Method: (§1) The efficacy of the combinations of the invention may be measured in vivo by implanting allografts or xenografts of cancer cells in rodents and treating the tumor-bearing animals with the combinations. Variable results are to be expected depending on the cell line, the presence or absence of certain mutations in the tumor cells, the sequence of administration of Formula I or II compound and chemotherapeutic agent, dosing regimen, and other factors. Subject mice were treated with drug(s) or control (Vehicle) and monitored over several weeks or more to measure the time to tumor doubling, log cell kill, and tumor inhibition (Example 17).
(§2) Animals suitable for transgenic experiments can be obtained from standard commercial sources. Groups of female CD-1 nude mice (Charles River Laboratory) were implanted subcutaneously in the hind flank with 20 million MDA-MB-361.1 (PI3K mutant) breast cancer cells with matrigel and 0.36 mg of estrogen implants per mouse. Groups of female NMRI nu/nu mice (Janvier) were implanted with 150 mm3 fragments of MAXF 401 (Her2+/ER+/PR^+) or MAXF 1162 (Her2+/ER+/PR^+) primary breast tumors (biopsied directly from two individual breast cancer patients) with matrigel and 0.36 mg of estrogen pellets per mouse. Groups of female HRLN nu/nu (Harlan Labs) were implanted with 10 million MCF-7 (PI3K mutant) breast cancer cells with matrigel and 0.36 mg of estrogen pellets per mouse. Groups of female athymic nu/nu mice (Charles River Laboratory) were implanted with 15 million NCI-H2122 (K-Ras mutant) non-small cell lung cancer cells and matrigel per mouse. Mouse xenografts were dosed at day 1 with drug, drug combination, or vehicle according to the schedule specified for each tumor model. Docetaxel was administered intravenously, B20-1.4 was administered intraperitonealy and Formula Ia and IIa were delivered per os by oral gavage. Tumor sizes were recorded twice weekly over the course of the study. Mouse body weights were also recorded twice weekly, and the mice were observed regularly. Tumor volume was measured in two dimensions (length and width) using Ultra Cal-IV calipers (Model 54-10-111; Fred V. Fowler Co., Inc.; Newton, Mass.) and analyzed using Excel v.11.2 (Microsoft Corporation; Redmond, Wash.). Tumor inhibition graphs were plotted using KaleidaGraph, Version 3.6 (Synergy Software; Reading, Pa.). The tumor volume was calculated with formula: Tumor size (mm^3)=(longer measurement×shorter measurement^2)×0.5
(§3) The percent tumor growth inhibition (% INH) at the end of study (EOS) was calculated using formula: % INH=100×(EOS mean volume of tumors in animals given vehicle−EOS mean volume of tumors in animals given the drug)/EOS mean volume of tumors in animals given vehicle.
(§4) Tumor incidence (TI) was determined based on the number of measurable tumors remaining in each group at the end of the study. A partial response (PR) was defined as a>50% but <100% reduction in tumor volume, compared with the starting tumor volume, observed on any day of the study. A complete response (CR) was defined as a 100% reduction in tumor volume, compared with the initial tumor volume, observed on any day of the study. Data were analyzed and p-values were determined using the Dunnett's test with JMP statistical software, version 5.1.2 (SAS Institute; Cary, N.C.). Individual tumor volumes at end of study and mean tumor volume±SEM values were calculated using JMP statistical software, version 5.1.2. Body weight data were graphed based on the mean percentage of change from initial body weights±SEM.

[5] = tested on: MAXF 1162 primary breast tumor explant xenografts; assay: In vivo tumor xenograft; parameters: species or system mouse; details: after 49 days, docetaxel 15 mg/kg iv day 0, 11, 22, 44
Method: as §1, §2, §3, §4

[6] = tested on: MCF-7 (PI3K mutant) breast tumor cell xenografts; assay: In vivo tumor xenograft; parameters: species or system mouse; details: after 21 days; for tumor inhibition: mB20-4.1 5 mg/kg ip twice a week 3 weeks
Method: as §1, §2, §3, §4

[7] = tested on: MAXF 401 primary breast tumor explant xenografts; assay: In vivo tumor xenograft; parameters: species or system mouse
Method: as §1, §2, §3, §4

[8] = tested on: MDA-MB-361.1 breast tumor cell xenografts; assay: In vivo tumor xenograft; parameters: species or system mouse; details: for tumor inhibition: docetaxel 5 mg/kg iv day 1, 5, 9
Method: as §1, §2, §3, §4

[9] = Oral bioavailability; details: in vivo
[10] = tested on: small cell lung cancer (SCLC) tumors; assay: Genetically engineered mouse model (GEMM) for SCLC; format: in vivo
Text: (§5) […]. Cancer Res. 12(18):5312-5328; US 2007/0292948, both of which are incorporated by reference in their entirety). The surprising and unexpected results from these experiments may predict the clinical response of certain patient populations having select tumor types and mutations to such combination therapy with Formula I and II compounds and chemotherapeutic agents.

[11] = tested on: K-ras-driven NSCLC tumors; assay: K-ras-driven NSCLC GEMM; format: in vivo, mouse
Text: as §5

[12] = tested on: pancreatic adenocarcinoma (PDAC) tumors; assay: Genetically engineered mouse model (GEMM) for pancreatic cancer; format: in vivo
Text: as §5
A GEMM for pancreatic cancer (Aguirre et al. (2003) Genes & Development 17:3112-3126) encompasses the mutations found in a majority of patients with this disease.

[13] = tested on: pAkt (Ser473) in MDA-MB-361 cells; assay: Phospho AKT induction assay; format: cell-based; details: synergistic cell line MDA-MB-361, EC80 dosing, 1 hr to 24 hr
Method: Phospho Akt (pAkt) levels can be measured by the method described in Example 18. Low CI correlates with the effect of the chemotherapeutic to induce an increase in pAkt. Levels of pAkt (Ser473) were determined using bead kits from Biosource (Carlsbad, Calif.) and the Luminex Bio-Plex system (Bio-Rad, Hercules, Calif.).
In a 6-well tissue culture plate cells were seeded at 5×10^5 cells per well overnight. Cells were treated with an EC80 of the chemotherapeutic agent. Following treatment, cells were washed once with cold PBS and lysed in 1× Cell Extraction Buffer from Biosource (Carlsbad, Calif.) supplemented with protease inhibitors (Roche, Mannheim, Germany), 1 mM PMSF, and Phosphatase Inhibitor Cocktails 1 and 2 from Sigma (St. Louis, Mo.). Determination of protein concentration was performed using the Pierce BCA Protein Assay Kit (Rockford, Ill.). Levels of pAkt (Ser^473) and total Akt were assessed using bead kits from Biosource (Carlsbad, Calif.) and the Luminex Bio-Plex system (Bio-Rad, Hercules, Calif.).

[14] = tested on: pERK; details: cited from earlier work
[15] = FIG. 27, Formula IIa 100 mg/kg oral
[16] = FIG. 25, day 28, Formula IIa 100 mg/kg oral day 0-3, 11-17, 21-28, docetaxel 15 mg/kg iv day 0 and 11
[17] = FIG. 25, end of the study (day 50)
[18] = FIG. 23, after 21 days, Formula IIa 37.5 mg/kg oral daily 21 days
[19] = FIG. 23, after 21 days, groups of 10 animals
[20] = FIG. 26, Formula Ia 100 mg/kg oral
[21] = FIG. 24, day 28, NMRI nu/nu mice, Formula Ia 100 mg/kg oral day 0-4, 11-17, 21-28, docetaxel 15 mg/kg iv day 0 and 11
[22] = FIG. 24, end of the study (day 50)
[23] = FIG. 22, after 21 days, CD-1 nude mice, Formula Ia 150 mg/kg oral daily 21 days
[24] = FIG. 22, after 41 days, Formula Ia 150 mg/kg oral daily 21 days
[25] = FIG. 22, after 41 days, groups of 11 (Formula Ia), 10 (docetaxel), 9 (combination) animals

What does the source list for `O=c1[nH]c2ccccc2n1C1CCN(Cc2ccc(-c3nc4cc5[nH]cnc5cc4nc3-c3ccccc3)cc2)CC1` [Akti-1/2, 1,3-dihydro-1-(1-((4-(6-phenyl-1H-imidazo[4,5-g]quinoxalin-7-yl)phenyl)methyl)-4-piperidinyl)-2H-benzimidazol-2-one]?
inhibitory effect [1]: does not exhibit any inhibitory effect; inhibitory effect [2]: does not exhibit any inhibitory effect; inhibitory effect [3]: does not exhibit any inhibitory effect

What does the source list for `CS(=O)(=O)N1CCN(Cc2cc3c(N4CCOCC4)nc(-c4cccc5[nH]ncc45)nc3s2)CC1` [Formula IIa, 4-(2-(1H-indazol-4-yl)-6-((4-(methylsulfonyl)piperazin-1-yl)methyl)thieno[2,3-d]pyrimidin-4-yl)morpholine]?
tumor inhibition ([4]; FIG. 29, end of study, Formula IIa 50 mg/kg, oral daily 14 days): 27%; tumor inhibition [5, 15]: 32%; partial regressions ([6]; FIG. 31): 0; tumor inhibition ([6]; FIG. 31, Formula IIa 100 mg/kg oral daily 21 days): 5%; tumor inhibition [7, 16]: 82%; tumor inhibition [7, 17]: 51%; tumor inhibition [8, 18]: 30%; partial regressions [8, 19]: 2; oral bioavailability [9]: orally bioavailable

Which tumor inhibition ([4]; FIG. 28, after 20 days, Formula Ia 50 mg/kg, oral daily 16 days) does the source give for `CS(=O)(=O)N1CCN(Cc2cc3nc(-c4cccc5[nH]ncc45)nc(N4CCOCC4)c3s2)CC1` [Formula Ia, 4-(2-(1H-indazol-4-yl)-6-((4-(methylsulfonyl)piperazin-1-yl)methyl)thieno[3,2-d]pyrimidin-4-yl)morpholine] here?
Its tumor inhibition is 17%.

What about the tumor inhibition [5, 20] of the same compound?
Its tumor inhibition is 54%.

What about the partial regressions ([6]; FIG. 30) of the same compound?
The partial regressions was 0.

And the tumor inhibition ([6]; FIG. 30, HRLN nu/nu mice, Formula Ia 150 mg/kg oral daily 21 days)?
Its tumor inhibition is 36%.

What about the tumor inhibition [7, 21] of the same compound?
The tumor inhibition was 49%.

What about the tumor inhibition [7, 22] of the same compound?
Its tumor inhibition is 10%.

And the tumor inhibition [8, 23]?
Its tumor inhibition is 75%.

And the tumor inhibition [8, 24]?
Its tumor inhibition is 66%.

And the partial regressions [8, 25]?
Its partial regressions is 3.

And the oral bioavailability [9]?
Its oral bioavailability is “orally bioavailable”.

And the survival [10]?
Its survival is “did have an effect (significant hazard ratio) on survival”.

And the “tumor growth as assessed by microCT imaging” value [10]?
Its value is “did not show effects on tumor growth”.

And the survival [11]?
The survival was “no effect on survival”.

What about the “tumor growth as measured by microCT imaging” value [11] of the same compound?
The value was “minimally affected tumor growth”.

And the survival [12]?
Its survival is “modest (not statistically significant) effect on survival”.

What about the “tumor growth via ultrasound” value [12] of the same compound?
Its value is “initial decrease in tumor growth”.

With `Cc1c(CN2CCN(C(=O)[C@H](C)O)CC2)sc2c(N3CCOCC3)nc(-c3cnc(N)nc3)nc12` [Formula Ib, (S)-1-(4-((2-(2-aminopyrimidin-5-yl)-7-methyl-4-morpholinothieno[3,2-d]pyrimidin-6-yl)methyl)piperazin-1-yl)-2-hydroxypropan-1-one] as the compound, how does the oral bioavailability [9] read?
Its oral bioavailability is “orally bioavailable”.

With `Nc1ccn([C@@H]2O[C@H](CO)[C@@H](O)C2(F)F)c(=O)n1` [Gemcitabine, 4-amino-1-[3,3-difluoro-4-hydroxy-5-(hydroxymethyl)tetrahydrofuran-2-yl]-1H-pyrimidin-2-one] as the compound, how does the pAkt levels [13] read?
Its pAkt levels is “increased pAkt levels”.

With `OCCn1cc(-c2ccc3c(c2)CC/C3=N\O)c(-c2ccncc2)n1` [HPPD, 5-(1-(2-hydroxyethyl)-3-(pyridin-4-yl)-1H-pyrazol-4-yl)-2,3-dihydro-1H-inden-1-one oxime] as the compound, how does the IC50 [14] read?
The IC50 was 87 nM.

Which tumor inhibition [5, 20] does the source give for “(2R,3S)-N-carboxy-3-phenylisoserine, N-tert-butyl ester, 13-ester with 5,20-epoxy-1,2,4,7,10,13-hexahydroxytax-11-en-9-one 4-acetate 2-benzoate, trihydrate [docetaxel, reference compound]” here?
Its tumor inhibition is 36%.

And the tumor inhibition [5, 15]?
The tumor inhibition was 36%.

What about the tumor inhibition [7, 21] of the same compound?
Its tumor inhibition is 95%.

And the tumor inhibition [7, 22]?
Its tumor inhibition is 68%.

And the tumor inhibition [7, 16]?
Its tumor inhibition is 95%.

And the tumor inhibition [7, 17]?
Its tumor inhibition is 68%.

What about the tumor inhibition [8, 23] of the same compound?
The tumor inhibition was 78%.

And the tumor inhibition [8, 24]?
Its tumor inhibition is 26%.

And the partial regressions [8, 25]?
The partial regressions was 2.

What about the tumor inhibition [8, 18] of the same compound?
Its tumor inhibition is 35%.

And the partial regressions [8, 19]?
The partial regressions was 3.
